Laboratory results published in patent publication US11759480B2, “Compositions and methods for CAR T cell therapy” (ENDOCYTE, INC., priority 2017, dated 2023).

Experiments:
MDA-MB-231 = test: CAR-T and EC17 therapy-related toxicity versus tumor size (Example 46); type: in vivo, NSG mice
Protocol: To explore whether CAR-T therapy related toxicity is dependent on tumor load, NSG mice were s.c. implanted with MDA-MB-231. Ten mice with different tumor sizes ranging between 150-900 mm^3 were selected for this study. For the CAR-T cells, 10.5 million GFP+FITC-CAR-T cells were i.v. injected followed by 500 nmol/kg EC17 administration 48 hours later (FIG. 71A). Body weights of mice were compared between before CAR-T injection and 18 hours post EC17 administration. […] With higher tumor burden, mice lost more body weight after CAR-T and EC17 treatment. […] Plasma samples were separated immediately and stored at −20° C. until the analysis of cytokine levels using a human cytokine detection kit (Biolegend). […] With higher tumor burden, more IL-6 was produced after CAR-T and EC17 treatment. IL-6 has been widely reported to be the predicting biomarker for severe cytokine release syndrome in human patients with liquid tumors when they are treated with conventional CAR-T therapy.

[1] = system: anti-fluorescein scFv on CAR T cells; test: Competitive binding assay against FITC-Alexa647 on CAR T cells; settings: 1 μM competing ligand versus FITC-Alexa647 10 nM
Protocol: To examine the ability of bridge molecules to bind anti-fluorescein scFv on CAR T cells, a competitive binding assay was developed. Measurement of the fluorescein signal from CAR T cell bound bridges could not be used due to the overlap of its fluorescence with that of the GFP expressing CAR T cells. For this purpose, FITC-Alexa647 (10 nM) was allowed to bind anti-fluorescein CAR T cells in the absence or presence of excess (1 μM) competing ligand (i.e. FITC-folate, FITC-DUPA, FITC-CA9) for 1 h at room temperature. After incubation, anti-fluorescein CAR T cells were washed 3× with PBS to remove unbounded FITC-Alexa647, and the washed cells were analyzed for Alexa647 fluorescence by flow cytometry.
Fluorescein-folate (FITC-folate) and fluorescein-PSMA (FITC-DUPA) were synthesized as previously described. To examine the ability of these bridge molecules to bind anti-fluorescein scFv on CAR T cells, a competitive binding assay had to be developed, because measurement of the fluorescein signal from CAR T cell bound bridge could not be used due to the overlap of its fluorescence with that of the GFP expressing CAR T cells. For this purpose, FITC-Alexa647 (10 nM) was allowed to bind anti-fluorescein CAR T cells in the absence or presence of excess (1 μM) competing ligand (i.e. FITC-folate) for 1 h at room temperature. After incubation, anti-fluorescein CAR T cells were washed 3× with PBS to remove unbounded FITC-Alexa647, and the washed cells were analyzed for Alexa647 fluorescence by flow cytometry. For analysis of FITC-folate to binding to folate receptor, FR positive KB cells were incubated with FITC-folate (100 nM) in the absence or presence of excess (10 μM) free folate (i.e. as a competitive ligand). After washing samples with PBS (3 times), samples were analyzed by flow cytometry for fluorescein-folate binding.

[2] = system: MDA-MB-231 solid tumor xenografts; test: Anti-tumor efficacy and toxicity of CAR T cells with EC17 in vivo (Example 17); set-up: species or system NSG mice
Protocol: Immunodeficient NSG mice (Jackson Laboratory) were used to identify the efficacy of CAR T cell anti-tumor activity in vivo. A folate receptor expressing MDA-MB-231 cancer cell line was subcutaneously injected into the back of NSG mice to establish solid tumor xenografts. When tumor volume of around 100-300 mm^3 was reached, a desired concentration of EC17 (as shown in the figure legends) was introduced 4 hours before the administration of a desired number of CAR T cell (as shown in the figure legends) into the mice bearing tumors. After initial administration of EC17 and CAR T cells, desired concentrations of EC17 (as shown in the figure legends) were also introduced (i.v.) three times per week. Control mice were administered T cells without CAR modification. Other control mice were administrated CAR-Ts, but PBS was dosed instead of EC17. Anti-tumor efficacy was monitored by tumor volume. General toxicity of the therapy was monitored by weight loss, gross animal morphology and behavior.

MDA-MB-231 tumors = test: FITC-CAR-T cell proliferation in vivo versus EC17 dose (Example 36); set-up: species or system NSG mice
Protocol: To evaluate whether the bridge dose can control CAR-T proliferation in vivo, NSG mice bearing MDA-MB-231 tumors (250-500 mm3) were divided into 4 groups and dosed with 0, 5, 50, or 500 nmol/kg of body weight of EC17 respectively (as shown in FIG. 40A). Four hours later, the four groups were administered with 5 million FITC-CAR-T cells which were cultured in vitro for 11 days, while one group of mice pre-dosed with 500 nmol/kg EC17 was not dosed with CAR-T cells and was used as a “No CAR-T control”. […] Blood samples were then collected 16 hours post the second EC17 dose and analyzed for CAR-T numbers in blood circulation (FIG. 40B). […] The interpretation of this finding is that CAR-T cells proliferated more in mice dosed with 50 or 500 nmol/kg EC17 than in mice dosed with 5 nmol/kg EC17, so that the CAR-T counts in blood circulation were higher.
To further confirm that FITC-CAR-T proliferation is EC17 dose-dependent, we also evaluated CAR-T proliferation in vivo when CAR-Ts were given more time to settle down and proliferate. For this purpose, we examined CAR-T cell number in mice which were administered with CAR-T cells six days earlier and four doses of EC17 had been given to boost CAR-T proliferation in vivo. NSG mice bearing MDA-MB-231 tumors (250-500 mm3) were divided into 4 groups and dosed with 0, 5, 50, or 500 nmol/kg of body weight of EC17 respectively (as shown in FIG. 41A). Four hours later, all mice were administered with 5 million FITC-CAR-T cells which were cultured in vitro for 18 days. Various levels of EC17 were then dosed at days 1, 3, 5 post CAR-T administering to boost CAR-T proliferation. Mouse blood samples were collected 24 hours post the last EC17 dose, CAR-T cells in blood were stained with anti-human CD45 antibody and counted by FACS.

For `Nc1nc2ncc(CNc3ccc(C(=O)NC(CCC(=O)NCCNC(=S)Nc4ccc(-c5c6ccc(=O)cc-6oc6cc(O)ccc56)c(C(=O)O)c4)C(=O)O)cc3)nc2c(=O)[nH]1` (stereo not shown) [EC17, FITC-Folate], the “cytokine release syndrome grade” value (MDA-MB-231; 18 hours after 500 nmol/kg, 10.5 million CAR-T) was 2 grade, the body weight changes (MDA-MB-231; tumors 150-900 mm^3) was “tumor size dependent” and the “production of IL-6” value (MDA-MB-231; tumors 150-900 mm^3) was “tumor size dependent”. For the same compound, the “binding to CAR-expressing T cells” value [1] was “able to bind to the CAR-expressing T cells”, the “binding to CAR-expressing T cells” value ([1]; listed as fluorescein-folate) was “competitively block FITC-Alexa 647 binding” and the “effect of changing dosing frequency from TIW to SIW” value ([2]; 5 million CAR T cells) was “reduce the toxicity and achieve better anti-tumor potency”. For the same compound, the anti-tumor outcome ([2]; EC17 20 and 100 nmoles/kg) was “complete cures”, the “sCRS and body weight loss compared to 500 nmoles/kg cohort” value ([2]; EC17 20 and 100 nmoles/kg) was “a lower percentage of sCRS and less body weight loss” and the body weight loss ([2]; optimized EC17 amount and CAR T numbers, complete cures reached) was 2%. For the same compound, the sCRS and cures ([2]; over-saturated EC17 doses 1500 and 10000 nmoles/kg) was “less mice showed sCRS but less mice reached cures”, the “CAR-T cells in blood versus 0 nmol/kg EC17” value (MDA-MB-231 tumors; 5 nmol/kg, day 3) was “less CAR-T cells in their blood circulation” and the “CAR-T cells in blood” value (MDA-MB-231 tumors; 50 or 500 nmol/kg, day 3) was “more CAR-T cells in their blood circulation”. The “EC17 dose with the highest CAR-T count” value (MDA-MB-231 tumors; day 6, four EC17 doses) was 50 nmol/kg.
